Measurements as given in publication PMC8000724, “Trans-Epithelial Transport, Metabolism, and Biological Activity Assessment of the Multi-Target Lupin Peptide [sequence] (P5) and Its Metabolite [sequence] (P5-Met)” (Nutrients, 2021).

Assays:
[1] = tested on: differentiated Caco-2 cells; experiment: Trans-epithelial transport across differentiated Caco-2 cell monolayer; type: in vitro ADME, human; conditions: for Amount in the BL compartment after 30 min: alone, 500 μM in AP, Caco-2 AP to BL
Procedure: Human intestinal Caco-2 cells, obtained from INSERM (Paris, France), where cultured according to a published protocol. For differentiation, they were seeded on polycarbonate filters, 12 mm diameter, 0.4 µm pore diameter (Transwell, Corning Inc., Lowell, MA, US) at a 3.5 × 10^5 cells/cm^2 density in complete medium supplemented with 10% FBS in both AP and BL compartments for 2 d to allow the formation of a confluent cell monolayer. Starting from day three after seeding, cells were transferred to FBS-free medium in both compartments, supplemented with ITS (final concentration 10 mg/L insulin (I), 5.5 mg/L transferrin (T), 6.7 μg/L sodium selenite (S); GIBCO-Invitrogen, San Giuliano Milanese, Italy) only in the basolateral (BL) compartment, and allowed to differentiate for 18–21 days with regular medium changes three times weekly.
The transepithelial electrical resistance (TEER) of differentiated Caco-2 cells was measured at 37 °C using the voltmeter apparatus Millicell (Millipore Co., Billerica, MA, USA), immediately before and at the end of the transport experiments. In addition, at the end of transport experiments, cells were incubated from the AP side with 1 mM phenol-red in PBS containing Ca^++ (0.9 mM) and Mg^++ (0.5 mM) for 1 h at 37 °C, to monitor the paracellular permeability of the cell monolayer. The BL solutions were then collected and NaOH (70 µL, 0.1 N) was added before reading the absorbance at 560 nm by a microplate reader Synergy H1 from Biotek (Winooski, VT, USA). Phenol-red passage was quantified using a standard phenol-red curve. Only filters showing TEER values and phenol red passages similar to untreated control cells were considered for peptide transport analysis.
Prior to experiments, the cell monolayer integrity and differentiation were checked by TEER measurement as described in detail above. Peptide trans-epithelial passage was assayed in differentiated Caco-2 cells in transport buffer solution (137 mM NaCl, 5.36 mM KCl, 1.26 mM CaCl2, and 1.1 mM MgCl2, 5.5 mM glucose) according to previously described conditions. In order to reproduce the pH conditions existing in vivo in the small intestinal mucosa, the apical (AP) solutions were maintained at pH 6.0 (buffered with 10 mM morpholinoethane sulfonic acid), and the basolateral (BL)solutions were maintained at pH 7.4 (buffered with 10 mM […]). Prior to transport experiments, cells were washed twice with 500 µL PBS containing Ca^++ and Mg^++. Peptide transportation by mature Caco-2 cells was assayed by loading the AP compartment with P5 alone, in mixture with […] (P3) and […] (P7), and/or P5-met (500 μM) in the AP transport solution (500 µL) and the BL compartment with the BL transport solution (700 µL). The plates were incubated at 37 °C and the BL solutions were collected at different time points (i.e., 15, 30, 60, 90, and 120 min) and replaced with fresh solutions pre-warmed at 37 °C. All BL and AP solutions collected at the end of the transport experiment were stored at −80 °C prior to analysis. Three independent transport experiments were performed, each in duplicate. In order to assess the involvement of transcytotic process in peptides passage, parallel transport experiments were performed in the presence of 500 nM wortmannin in both the AP and BL compartment, over 60 min incubation time.
The medium collected at the end of transport experiments from AP and BL chambers (500 µL and 700 µL, respectively) were freeze-dried and residues were solubilized in HPLC water (100 µL). Samples were desalted with C18 resin ZipTip by using 80% ACN, 0.1% FA as eluent (Millipore Corporation, Bedford, MA, USA). Each sample was lyophilized under speed-vacuum for 5 h at 30°C and re-dissolved in 50 μL (0.1% formic acid), before MS analysis. Purified BL samples were analyzed on a SL IT mass spectrometer interfaced with a HPLC- Chip Cube source (Agilent Technologies, Palo Alto, CA, USA). […]

SREBP-2 = experiment: Western blot, SREBP-2 protein level in HepG2 cells; type: cell-based, human; conditions: HepG2, 50 µM, 24 h, mean ± SD
Procedure: The HepG2 cell line was bought from ATCC (HB-8065, ATCC from LGC Standards, Milan, Italy) and was cultured in DMEM high glucose with stable L-glutamine, supplemented with 10% FBS, 100 U/mL penicillin, 100 µg/mL streptomycin (complete growth medium) with incubation at 37 °C under 5% CO2 atmosphere.
Immunoblotting experiments were performed using optimized protocol. A total of 1.5 × 10^5 HepG2 cells/well (24-well plate) were treated with 50 μM of P5 and P5-met for 24 h. After each treatment, the supernatants were collected and stored at −20°C; cells were scraped in 40 µL ice-cold lysis buffer (RIPA buffer + inhibitor cocktail + 1:100 PMSF + 1:100 Na-orthovanadate + 1:1000 β-mercaptoethanol) and transferred in ice-cold microcentrifuge tubes. […] Total proteins were quantified by the Bradford’s method and 50 μg of total proteins loaded on a pre-cast 7.5% Sodium Dodecyl Sulfate-Polyacrylamide (SDS-PAGE) gel at 130 V for 45 min. […] Target proteins, on milk or BSA blocked membrane, were detected by primary antibodies as follows: anti-SREBP-2, anti-LDLR, anti-HMGCoAR, anti-PCSK9, anti HNF1-α and anti-β-actin. Secondary antibodies conjugated with HRP and a chemiluminescent reagent were used to visualize target proteins and their signal was quantified using the Image Lab Software (Biorad, Hercules, CA, USA). […]

Amount in the BL compartment after 30 min ([1]; AP pH 6.0 / BL pH 7.4, 37 °C, LC-MS/MS MRM, mean ± SD of three independent experiments): 0.54 ± 0.02 µg
Amount in the BL compartment after 30 min ([1]; conversion of the µg value): 0.613 nmol
Substance: H-LPKHSDAD-OH [Peptide P5-met]
Effect of the transcytosis inhibitor wortmannin on transport across Caco-2 cells ([1]; 500 nM wortmannin in AP and BL compartments, 60 min, HPLC-Chip MS of BL compartment): transported also in the presence of wortmannin
SREBP-2 protein level versus the control (SREBP-2): 130.4 ± 16.4%
